# Reference: PMC11756644 (ACS chemical biology, 2015)
# Molecular target: T1, tPAD1 (Saccharomyces cerevisiae, UniProt P33751)
# T1 sequence (P33751 55-242): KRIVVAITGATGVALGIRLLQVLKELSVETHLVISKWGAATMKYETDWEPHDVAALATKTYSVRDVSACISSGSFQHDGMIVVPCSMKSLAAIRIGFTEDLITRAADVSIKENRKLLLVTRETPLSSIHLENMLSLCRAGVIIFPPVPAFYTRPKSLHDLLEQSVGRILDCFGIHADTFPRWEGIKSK
# Experiment: UV-visible spectrum of purified protein
# Assay type: binding
# Conditions: co-purified from E. coli; oxidized FMN
smiles,measurement,value
Cc1cc2nc3c(=O)[nH]c(=O)nc-3n(C[C@H](O)[C@H](O)[C@H](O)COP(=O)(O)O)c2cc1C [FMN],UV-visible spectrum of purified protein; LC-ESI-MS of released flavin,The presence of FMN was confirmed by LC-ESI-MS. FMN was released from tPAD1 by precipitation
